Patent US10100050B2 (CHIESI FARMACEUTICI S.P.A., priority 2015, dated 2018)

How the values were obtained:
BEAS-2B cells = test: TNFα-stimulated BEAS-2B IL-8 release assay; type: cell-based; settings: Homo sapiens, IC50 classes, TNF-α 10 ng/ml, 18 h, read-out: TNFα-stimulated BEAS-2B IL-8 release inhibition
How it was run: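 BEAS-2B cells at 80-90% confluence were pre-incubated 1 h with p38 inhibitors, then stimulated 18 h at 37 °C with TNF-α (10 ng/ml). Supernatant IL-8 was measured by ELISA. IC50 was taken from sigmoidal variable-slope fits of % inhibition of control release.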

p38alpha = target: T1, p38alpha (Homo sapiens, UniProt Q16539); test: P38alpha enzyme inhibition assay (Alphascreen kinase activity assay); type: biochemical; settings: IC50 classes; 2 hours preincubation at 25° C., 250 μM ATP; read-out: p38α inhibition
T1 construct: purchased Invitrogen PV3304
T1 sequence (Q16539 whole entry): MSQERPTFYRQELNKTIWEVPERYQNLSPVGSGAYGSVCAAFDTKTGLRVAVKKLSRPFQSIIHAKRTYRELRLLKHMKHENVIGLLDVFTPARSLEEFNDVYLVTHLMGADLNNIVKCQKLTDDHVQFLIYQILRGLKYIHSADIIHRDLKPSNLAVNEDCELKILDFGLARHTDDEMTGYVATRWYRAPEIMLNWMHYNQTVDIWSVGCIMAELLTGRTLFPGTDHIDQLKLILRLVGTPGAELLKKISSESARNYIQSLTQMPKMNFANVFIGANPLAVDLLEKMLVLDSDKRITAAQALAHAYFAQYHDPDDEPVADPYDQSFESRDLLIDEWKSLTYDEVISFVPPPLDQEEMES
How it was run: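 p38alpha with 0.3 μg/ml ATF-2 fusion protein in HEPES pH 7.5 buffer (10 mM MgCl2, 2 mM DTT, 1% DMSO); compounds preincubated 2 h at 25° C, then 250 μM ATP added for 1 h at 25° C. Phospho-ATF2 detected by AlphaScreen luminescence with anti-phospho-ATF2 antibody; IC50 from concentration-response curves.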

[1] = system: Peripheral Blood Mononuclear Cells (PBMCs); test: LPS-stimulated PBMC TNFα release assay; type: cell-based; settings: IC50 classes; human PBMC, LPS 10 ng/ml, 18 h; read-out: LPS-stimulated PBMC TNFα release inhibition
How it was run: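 Human PBMCs from healthy donors, adhered 3 h in serum-free RPMI, received compound for 1 h in 1% FBS medium before 10 ng/ml LPS for 18 h. Supernatant TNFα was measured by MSD; IC50 from percentage inhibition of control release, at least three separate experiments.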

In the case of `CN1CCC[C@@]1(C)c1nnc2ccc(O[C@@H]3CC[C@H](NC(=O)Nc4cc(C(C)(C)C)ccc4CO)c4ccccc43)cn12` [Example 59, 1-(5-tert-Butyl-2-hydroxymethyl-phenyl)-3-{(1S,4R)-4-[3-((S)-1,2-dimethyl-pyrrolidin-2-yl)-[1,2,4]triazolo[4,3-a]pyridin-6-yloxy]-1,2,3,4-tetrahydro-naphthalen-1-yl}-urea], the IC50 (BEAS-2B cells) is reported as under 0.3 nM, the IC50 (p38alpha) is reported as under 1 nM and the IC50 [1] is reported as under 1 nM.

Compound `CN1CCCC[C@H]1c1nnc2ccc(O[C@@H]3CC[C@H](NC(=O)Nc4cc(NS(C)(=O)=O)cc(C(C)(C)C)c4)c4ccccc43)cn12` [Example 61, N-[3-tert-Butyl-5-(3-{(1S,4R)-4-[3-((S)-1-methyl-piperidin-2-yl)-[1,2,4]triazolo[4,3-a]pyridin-6-yloxy]-1,2,3,4-tetrahydro-naphthalen-1-yl}-ureido)-phenyl]-methanesulfonamide] has an IC50 (BEAS-2B cells) of over 1 nM, an IC50 (p38alpha) of under 1 nM and an IC50 [1] of 1 to 5 nM.

`CN1CCN(C(C)(C)c2nnc3ccc(O[C@@H]4CC[C@H](NC(=O)Nc5cc(NS(C)(=O)=O)cc(C(C)(C)C)c5)c5ccccc54)cn23)CC1` [Example 62, N-{3-tert-Butyl-5-[3-((1S,4R)-4-{3-[1-methyl-1-(4-methyl-piperazin-1-yl)-ethyl]-[1,2,4]triazolo[4,3-a]pyridin-6-yloxy}-1,2,3,4-tetrahydro-naphthalen-1-yl)-ureido]-phenyl}-methanesulfonamide] was tested, and the IC50 (BEAS-2B cells) was over 1 nM, the IC50 (p38alpha) was under 1 nM and the IC50 [1] was over 5 nM.

`CN1CC[C@H]1c1nnc2ccc(O[C@@H]3CC[C@H](NC(=O)Nc4cc(NS(C)(=O)=O)cc(C(C)(C)C)c4)c4ccccc43)cn12` [Example 63, N-[3-tert-Butyl-5-(3-{(1S,4R)-4-[3-((S)-1-methyl-azetidin-2-yl)-[1,2,4]triazolo[4,3-a]pyridin-6-yloxy]-1,2,3,4-tetrahydro-naphthalen-1-yl}-ureido)-phenyl]-methanesulfonamide] showed an IC50 (BEAS-2B cells) of over 1 nM, an IC50 (p38alpha) of 1 to 10 nM and an IC50 [1] of over 5 nM.

In the case of `CN1CCC[C@@]1(C)c1nnc2ccc(O[C@@H]3CC[C@H](NC(=O)Nc4cc(N5CCNCC5)cc(C(C)(C)C)c4)c4ccccc43)cn12` [Example 64, 1-(3-tert-Butyl-5-piperazin-1-yl-phenyl)-3-{(1S,4R)-4-[3-((S)-1,2-dimethyl-pyrrolidin-2-yl)-[1,2,4]triazolo[4,3-a]pyridin-6-yloxy]-1,2,3,4-tetrahydro-naphthalen-1-yl}-urea], the IC50 (BEAS-2B cells) is reported as over 1 nM, the IC50 (p38alpha) is reported as under 1 nM and the IC50 [1] is reported as over 5 nM.

With `CN(C)Cc1cc(NC(=O)N[C@H]2CC[C@@H](Oc3ccc4nnc([C@]5(C)CCCN5C)n4c3)c3ccccc32)cc(C(C)(C)C)c1` [Example 65, 1-(3-tert-Butyl-5-dimethylaminomethyl-phenyl)-3-{(1S,4R)-4-[3-((S)-1,2-dimethyl-pyrrolidin-2-yl)-[1,2,4]triazolo[4,3-a]pyridin-6-yloxy]-1,2,3,4-tetrahydro-naphthalen-1-yl}-urea] the IC50 (BEAS-2B cells) was 0.3 to 1 nM, the IC50 (p38alpha) was under 1 nM and the IC50 [1] was 1 to 5 nM.

In the case of `C[C@H]1CCCCN1c1nnc2ccc(O[C@@H]3CC[C@H](NC(=O)Nc4cc(CN(C)C)cc(C(C)(C)C)c4)c4ccccc43)cn12` [Example 66, 1-(3-tert-Butyl-5-dimethylaminomethyl-phenyl)-3-{(1S,4R)-4-[3-((S)-2-methyl-piperidin-1-yl)-[1,2,4]triazolo[4,3-a]pyridin-6-yloxy]-1,2,3,4-tetrahydro-naphthalen-1-yl}-urea], the IC50 (BEAS-2B cells) is reported as under 0.3 nM, the IC50 (p38alpha) is reported as under 1 nM and the IC50 [1] is reported as 1 to 5 nM.

For `CN(CCO)Cc1cc(NC(=O)N[C@H]2CC[C@@H](Oc3ccc4nnc([C@]5(C)CCCN5C)n4c3)c3ccccc32)cc(C(C)(C)C)c1` [Example 67, 1-(3-tert-Butyl-5-{[(2-hydroxy-ethyl)-methyl-amino]-methyl}-phenyl)-3-{(1S,4R)-4-[3-((S)-1,2-dimethyl-pyrrolidin-2-yl)-[1,2,4]triazolo[4,3-a]pyridin-6-yloxy]-1,2,3,4-tetrahydro-naphthalen-1-yl}-urea], the IC50 (BEAS-2B cells) was 0.3 to 1 nM, the IC50 (p38alpha) was under 1 nM and the IC50 [1] was over 5 nM.

Compound `C[C@H]1CCCCN1c1nnc2ccc(O[C@@H]3CC[C@H](NC(=O)Nc4cc(CN(C)CCO)cc(C(C)(C)C)c4)c4ccccc43)cn12` [Example 68, 1-(3-tert-Butyl-5-{[(2-hydroxy-ethyl)-methyl-amino]-methyl}-phenyl)-3-{(1S,4R)-4-[3-((S)-2-methyl-piperidin-1-yl)-[1,2,4]triazolo[4,3-a]pyridin-6-yloxy]-1,2,3,4-tetrahydro-naphthalen-1-yl}-urea] has an IC50 (BEAS-2B cells) of over 1 nM, an IC50 (p38alpha) of under 1 nM and an IC50 [1] of over 5 nM.

Compound `CN(C)CCOCc1cc(NC(=O)N[C@H]2CC[C@@H](Oc3ccc4nnc([C@]5(C)CCCN5C)n4c3)c3ccccc32)cc(C(C)(C)C)c1` [Example 69] has an IC50 (BEAS-2B cells) of under 0.3 nM, an IC50 (p38alpha) of under 1 nM and an IC50 [1] of over 5 nM.

For `C[C@H]1CCCCN1c1nnc2ccc(O[C@@H]3CC[C@H](NC(=O)Nc4cc(COCCN(C)C)cc(C(C)(C)C)c4)c4ccccc43)cn12` [Example 70, 1-[3-tert-Butyl-5-(2-dimethylamino-ethoxymethyl)-phenyl]-3-{(1S,4R)-4-[3-((S)-2-methyl-piperidin-1-yl)-[1,2,4]triazolo[4,3-a]pyridin-6-yloxy]-1,2,3,4-tetrahydro-naphthalen-1-yl}-urea], the IC50 (BEAS-2B cells) was 0.3 to 1 nM, the IC50 (p38alpha) was under 1 nM and the IC50 [1] was over 5 nM.

Compound `CN1CCC[C@@]1(C)c1nnc2ccc(O[C@@H]3CC[C@H](NC(=O)Nc4cc(COCCN5CCCCC5)cc(C(C)(C)C)c4)c4ccccc43)cn12` [Example 71, 1-[3-tert-Butyl-5-(2-piperidin-1-yl-ethoxymethyl)-phenyl]-3-{(1S,4R)-4-[3-((S)-1,2-dimethyl-pyrrolidin-2-yl)-[1,2,4]triazolo[4,3-a]pyridin-6-yloxy]-1,2,3,4-tetrahydro-naphthalen-1-yl}-urea] has an IC50 (BEAS-2B cells) of 0.3 to 1 nM, an IC50 (p38alpha) of under 1 nM and an IC50 [1] of 1 to 5 nM.

With `CN1CCC[C@@]1(C)c1nnc2ccc(O[C@@H]3CC[C@H](NC(=O)Nc4cc(COCCN5CCOCC5)cc(C(C)(C)C)c4)c4ccccc43)cn12` [Example 72, 1-[3-tert-Butyl-5-(2-morpholin-4-yl-ethoxymethyl)-phenyl]-3-{(1S,4R)-4-[3-((S)-1,2-dimethyl-pyrrolidin-2-yl)-[1,2,4]triazolo[4,3-a]pyridin-6-yloxy]-1,2,3,4-tetrahydro-naphthalen-1-yl}-urea] the IC50 (BEAS-2B cells) was 0.3 to 1 nM, the IC50 (p38alpha) was under 1 nM and the IC50 [1] was over 5 nM.

For `CN1CCC[C@@]1(C)c1nnc2ccc(O[C@@H]3CC[C@H](NC(=O)Nc4cc(C(C)(C)C)ccc4CN4CCOCC4)c4ccccc43)cn12` [Example 73, 1-(5-tert-Butyl-2-morpholin-4-ylmethyl-phenyl)-3-{(1S,4R)-4-[3-((S)-1,2-dimethyl-pyrrolidin-2-yl)-[1,2,4]triazolo[4,3-a]pyridin-6-yloxy]-1,2,3,4-tetrahydro-naphthalen-1-yl}-urea], the IC50 (BEAS-2B cells) was 0.3 to 1 nM, the IC50 (p38alpha) was 1 to 10 nM and the IC50 [1] was over 5 nM.

`C[C@H]1CCCCN1c1nnc2ccc(O[C@@H]3CC[C@H](NC(=O)Nc4cc(C(C)(C)C)ccc4CN4CCOCC4)c4ccccc43)cn12` [Example 74, 1-(5-tert-Butyl-2-morpholin-4-ylmethyl-phenyl)-3-{(1S,4R)-4-[3-((S)-2-methyl-piperidin-1-yl)-[1,2,4]triazolo[4,3-a]pyridin-6-yloxy]-1,2,3,4-tetrahydro-naphthalen-1-yl}-urea] was tested, and the IC50 (BEAS-2B cells) was 0.3 to 1 nM, the IC50 (p38alpha) was 1 to 10 nM and the IC50 [1] was over 5 nM.

Compound `CN1CCC[C@@]1(C)c1nnc2ccc(O[C@@H]3CC[C@H](NC(=O)Nc4cc(CN(CCO)CCO)cc(C(C)(C)C)c4)c4ccccc43)cn12` [Example 75, 1-(3-{[Bis-(2-hydroxy-ethyl)-amino]-methyl}-5-tert-butyl-phenyl)-3-{(1S,4R)-4-[3-((S)-1,2-dimethyl-pyrrolidin-2-yl)-[1,2,4]triazolo[4,3-a]pyridin-6-yloxy]-1,2,3,4-tetrahydro-naphthalen-1-yl}-urea] has an IC50 (BEAS-2B cells) of over 1 nM, an IC50 (p38alpha) of under 1 nM and an IC50 [1] of 1 to 5 nM.

`C[C@H]1CCCCN1c1nnc2ccc(O[C@@H]3CC[C@H](NC(=O)Nc4cc(CN(CCO)CCO)cc(C(C)(C)C)c4)c4ccccc43)cn12` [Example 76, 1-(3-{[Bis-(2-hydroxy-ethyl)-amino]-methyl}-5-tert-butyl-phenyl)-3-{(1S,4R)-4-[3-((S)-2-methyl-piperidin-1-yl)-[1,2,4]triazolo[4,3-a]pyridin-6-yloxy]-1,2,3,4-tetrahydro-naphthalen-1-yl}-urea] showed an IC50 (BEAS-2B cells) of over 1 nM, an IC50 (p38alpha) of under 1 nM and an IC50 [1] of 1 to 5 nM.
